This assay has as its target T1, GST-tagged-Wee1 kinase (Homo sapiens, UniProt P30291).
T1 construct: purchased Carnabio 05-177
Nature of the assay: Wee1 time-resolved fluorescence equilibrium binding assay (displacement of Oregon Green-labeled ATP-competitive kinase probe). Particulars: enzyme binding data; GST-tagged-Wee1 kinase 2 nM, fluorescent probe 300 nM, inhibitor 0.003 to 10 micromolar, 1 hour incubation; read-out: Wee-1 binding (Ki nM). An outline of the steps:
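Competitive TR-fluorescence equilibrium binding with GST-Wee1; inhibitors displace a rapidly reversible Oregon Green-labelled ATP-competitive probe. Ki values derived from probe displacement.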
T1 sequence (P30291 whole entry): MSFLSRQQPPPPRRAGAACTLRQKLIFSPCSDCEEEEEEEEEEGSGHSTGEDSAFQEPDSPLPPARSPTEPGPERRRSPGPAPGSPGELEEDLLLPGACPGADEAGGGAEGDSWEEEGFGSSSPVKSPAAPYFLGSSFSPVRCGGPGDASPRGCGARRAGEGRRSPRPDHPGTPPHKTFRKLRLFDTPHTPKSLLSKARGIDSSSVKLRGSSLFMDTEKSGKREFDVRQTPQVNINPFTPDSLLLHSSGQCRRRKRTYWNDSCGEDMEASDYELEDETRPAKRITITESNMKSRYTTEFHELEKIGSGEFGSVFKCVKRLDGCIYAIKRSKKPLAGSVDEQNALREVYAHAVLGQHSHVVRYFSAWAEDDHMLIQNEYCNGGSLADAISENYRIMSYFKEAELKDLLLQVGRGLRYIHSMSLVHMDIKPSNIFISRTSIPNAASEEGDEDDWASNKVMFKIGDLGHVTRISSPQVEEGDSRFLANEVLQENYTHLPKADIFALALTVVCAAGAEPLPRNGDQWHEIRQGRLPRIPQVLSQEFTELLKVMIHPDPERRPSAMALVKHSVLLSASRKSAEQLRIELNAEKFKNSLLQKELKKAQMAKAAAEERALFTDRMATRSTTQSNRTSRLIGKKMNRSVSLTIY
For `O=c1c2cnc(Nc3ccc4c(c3)CCNC4)nc2c(CF)cn1-c1c(Cl)cccc1Cl` [Example 110, 6-(2,6-dichlorophenyl)-8-(fluoromethyl)-2-(1,2,3,4-tetrahydroisoquinolin-6-ylamino)pyrido[4,3-d]pyrimidin-5(6H)-one], the Ki stood at 0.4 nM. In the case of `Cc1cn(-c2ccccc2-c2cnco2)c(=O)c2cnc(Nc3ccc(N4CCC(N(C)C)CC4)cc3)nc12` [Example 106, 2-({4-[4-(dimethylamino)piperidin-1-yl]phenyl}amino)-8-methyl-6-[2-(1,3-oxazol-5-yl)phenyl]pyrido[4,3-d]pyrimidin-5(6H)-one], the Ki came to 115 nM.

On to `Cc1cn(-c2ccccc2Cl)c(=O)c2cnc(Nc3ccc(N4CCC(N(C)C)CC4)cc3)nc12` [Example 99, 6-(2-chlorophenyl)-2-({4-[4-(dimethylamino)piperidin-1-yl]phenyl}amino)-8-methylpyrido[4,3-d]pyrimidin-5(6H)-one], for which the Ki amounted to 0.9 nM. For `CN(C)C1Cc2ccc(Nc3ncc4c(=O)n(-c5c(Cl)cccc5Cl)cc(CO)c4n3)cc2C1` (centres unmarked) [Example 54, 6-(2,6-dichlorophenyl)-2-{[2-(dimethylamino)-2,3-dihydro-1H-inden-5-yl]amino}-8-(hydroxymethyl)pyrido[4,3-d]pyrimidin-5(6H)-one], the Ki was 0.4 nM. With `Cc1cn(-c2c(Cl)cccc2Cl)c(=O)c2cnc(Nc3ccc(N[C@H]4CC[C@H](N(C)C)CC4)cc3)nc12` [Example 132, 6-(2,6-dichlorophenyl)-2-[(4-{[trans-4-(dimethylamino)cyclohexyl]amino}phenyl)amino]-8-methylpyrido[4,3-d]pyrimidin-5(6H)-one] the figure was 0.4 nM. With `CNC(=O)CS(=O)(=O)c1ccc(Nc2ncc3c(=O)n(-c4c(Cl)cccc4Cl)cc(C)c3n2)cc1` [Example 120, 2-[(4-{[6-(2,6-dichlorophenyl)-8-methyl-5-oxo-5,6-dihydropyrido[4,3-d]pyrimidin-2-yl]amino}phenyl)sulfonyl]-N-methylacetamide] the figure was 0.3 nM; with `Cc1cn(-c2c(F)cccc2Cl)c(=O)c2cnc(Nc3ccc4c(c3)CN(C)CC4(C)C)nc12` [Example 70, 6-(2-chloro-6-fluorophenyl)-8-methyl-2-[(2,4,4-trimethyl-1,2,3,4-tetrahydroisoquinolin-7-yl)amino]pyrido[4,3-d]pyrimidin-5(6H)-one], 1.6 nM; with `C=Cc1cn(-c2c(Cl)cccc2Cl)c(=O)c2cnc(Nc3ccc4c(c3)CNCC4(C)C)nc12` [Example 56, 6-(2,6-dichlorophenyl)-2-[(4,4-dimethyl-1,2,3,4-tetrahydroisoquinolin-7-yl)amino]-8-ethenylpyrido[4,3-d]pyrimidin-5(6H)-one], 0.5 nM.

As to `CN(C)C1CCN(c2ccc(Nc3ncc4c(=O)n(-c5c(Cl)cccc5Cl)cc(C(F)F)c4n3)cc2)CC1` [Example 84, 6-(2,6-dichlorophenyl)-8-(difluoromethyl)-2-({4-[4-(dimethylamino)piperidin-1-yl]phenyl}amino)pyrido[4,3-d]pyrimidin-5(6H)-one], the Ki was found to be 0.328 nM. With `Cc1cn(-c2c(Cl)cccc2Cl)c(=O)c2cnc(Nc3ccc(N[C@H]4CC[C@@H](N(C)C)CC4)cc3)nc12` [Example 133, 6-(2,6-dichlorophenyl)-2-[(4-{[cis-4-(dimethylamino)cyclohexyl]amino}phenyl)amino]-8-methylpyrido[4,3-d]pyrimidin-5(6H)-one] the figure was 0.5 nM; with `COC(=O)c1ccc(Cl)c(-n2cc(C)c3nc(Nc4ccc5c(c4)CNCC5)ncc3c2=O)c1` [Example 107, methyl 4-chloro-3-[8-methyl-5-oxo-2-(1,2,3,4-tetrahydroisoquinolin-7-ylamino)pyrido[4,3-d]pyrimidin-6(5H)-yl]benzoate], 321 nM.

Source of the values: patent US9718821B2, “Pyridopyrimidinone inhibitors of kinases” (AbbVie Inc., priority 2012, dated 2017).
